Test results: ChEMBL document CHEMBL1201862, “PubChem BioAssay data set” (2004)
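A five-concentration, 48-hour dose response in 96-well plates underlies each endpoint, interpolated linearly between surrounding concentrations. GI50: concentration for 50% inhibition of growth.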 Active and inactive are the calls of the source. Rule as the data show it: active = GI50 up to about 1.1 µM and inactive = higher.

Key:
Experiment in all cases: NCI-60 cell line screen, 48 h
BT-549 = system: BT-549
CAKI-1 = system: CAKI-1
CCRF-CEM = system: CCRF-CEM
HCT-116 = system: HCT-116
HT-29 = system: HT-29
IGROV-1 = system: IGROV-1
M14 = system: M14
MCF7 = system: MCF7
MDA-N = system: MDA-N
MOLT-4 = system: MOLT-4
NCI-H522 = system: NCI-H522
NCI/ADR-RES = system: NCI/ADR-RES
OVCAR-3 = system: OVCAR-3
SK-MEL-2 = system: SK-MEL-2
SN12C = system: SN12C
SNB-75 = system: SNB-75
TK-10 = system: TK-10
U-251 = system: U-251
UACC-62 = system: UACC-62

Measured: GI50

CC(=O)Oc1cc2c(cc1OCC(F)(F)F)[C@H]1CC[C@]3(C)[C@@H](OC(C)=O)CC[C@H]3[C@@H]1CC2=O
inactive: BT-549 18.4 µM | CAKI-1 17.4 µM | CCRF-CEM 15.3 µM | HCT-116 19.3 µM | HT-29 23.9 µM | IGROV-1 18.7 µM | M14 26.4 µM | MCF7 18.9 µM | MDA-N 24.1 µM | MOLT-4 15.6 µM | NCI-H522 20 µM | NCI/ADR-RES 15.3 µM | OVCAR-3 19.5 µM | SK-MEL-2 16.9 µM | SN12C 21 µM | SNB-75 16 µM | TK-10 17.5 µM | U-251 16.4 µM | UACC-62 12.2 µM

CCC1CC2CN3CCc4c([nH]c5c(-c6c(OC)ccc7c8c([nH]c67)[C@]6(C(=O)OC)CC7CC(CC)C6N(CC8)C7)c(O)ccc45)[C@](C(=O)OC)(C2)C13 (stereo partly specified)
inactive: BT-549 17.3 µM | CAKI-1 12.6 µM | CCRF-CEM 15.3 µM | HCT-116 13 µM | HT-29 5.37 µM | IGROV-1 14 µM | M14 24.9 µM | MCF7 6.82 µM | MDA-N 12.2 µM | MOLT-4 2.64 µM | NCI-H522 15.7 µM | NCI/ADR-RES 20.4 µM | OVCAR-3 14.6 µM | SK-MEL-2 20.9 µM | SN12C 4.34 µM | SNB-75 14.8 µM | TK-10 15.2 µM | U-251 12.9 µM | UACC-62 14.3 µM

COc1ccc(/C=C/c2cnnc3ccccc23)cc1OC
inactive: BT-549 > 10 µM | CAKI-1 > 10 µM | CCRF-CEM > 10 µM | HCT-116 > 10 µM | HT-29 > 10 µM | IGROV-1 > 10 µM | M14 > 10 µM | MCF7 > 10 µM | MDA-N > 10 µM | MOLT-4 > 10 µM | NCI-H522 > 10 µM | NCI/ADR-RES > 10 µM | OVCAR-3 > 10 µM | SK-MEL-2 > 10 µM | SN12C > 10 µM | SNB-75 5.46 µM | TK-10 > 10 µM | U-251 > 10 µM | UACC-62 > 10 µM

O=C(Nc1cccc(Cl)c1)Nn1cnnc1
inactive: BT-549 > 100 µM | CAKI-1 > 100 µM | CCRF-CEM > 100 µM | HCT-116 > 100 µM | HT-29 > 100 µM | IGROV-1 > 100 µM | M14 > 100 µM | MCF7 > 100 µM | MDA-N > 100 µM | MOLT-4 > 100 µM | NCI-H522 > 100 µM | NCI/ADR-RES > 100 µM | OVCAR-3 > 100 µM | SK-MEL-2 > 100 µM | SN12C > 100 µM | SNB-75 > 100 µM | TK-10 > 100 µM | U-251 > 100 µM | UACC-62 > 100 µM
